In patent US20240116879A1, “AMILORIDE DERIVATIVES AND METHODS OF USING SAME FOR THE TREATMENT OF VIRAL INFECTIONS” (priority 2020, published 2024):

Columns and labels:
[1] = system: SARS-CoV-2 stem loop constructs (SL1, SL4, SL5a, SL5b, SL6); type: binding; conditions: RiboGreen displacement, Tris buffer pH 7.4
human coronavirus OC43 = type: cell-based; conditions: for effect on virus titer (in words): 50 μM or 100 μM, Vero E6, MOI=1, 24 hours at 33° C.; for reduced virus titer: 100 μM, Vero E6, MOI=1, 24 hr, plaque formation
VeroE6 cells = conditions: uninfected VeroE6, 3 days of treatment, 10 μM and 50 μM
[2] = system: SARS-CoV-2 5′-end and 3′UTR; type: cell-based
[3] = Cytotoxicity MTT assay in Vero E6 cells; type: cell-based, African green monkey; conditions: African green monkey, Vero E6 cells; Vero E6, 96 hrs, 33° C., MTT
Method: (§1) Cytotoxicity Assays: Various concentrations of DMAs were added to Vero E6 cells in culture. The cells were incubated at 33° C. for 96 hrs. Cell viability was determined by MTT assay and measured at 570 nm according to the manufacturer's instructions (EMD Millipore). All experiments were performed in triplicate. The concentration of DMAs required to reduce cell viability to 50% of the control cells was expressed as CC50.

Vero E6 cells = experiment: Cytotoxicity MTT assay in Vero E6 cells; type: cell-based, African green monkey; conditions: <10 μM, 96 hour, Vero E6
Method: as §1

SARS-CoV-2 [4] = type: cell-based; conditions: for viral titer compared to DMSO (TCID50 assay): 10 μM and 50 μM, MOI 0.1, 3 days; for antiviral activity compared to parent scaffold DMA-01: Vero E6 infected with wild-type SARS-CoV-2
SARS-CoV-2 SL1 RNA = experiment: Indicator displacement assay (IDA), SL1; type: binding; conditions: RiboGreen displacement, Tris buffer pH 7.4
SARS-CoV-2 SL6 RNA = experiment: Indicator displacement assay (IDA), SL6; type: binding; conditions: RiboGreen displacement, Tris buffer pH 7.4
SARS-CoV-2 SL4 RNA = experiment: Indicator displacement assay (IDA), SL4; type: binding; conditions: RiboGreen displacement, Tris buffer pH 7.4
SARS-CoV-2 [5] = experiment: microbe, parasite or virus in culture; type: cell-based; conditions: Severe acute respiratory syndrome coronavirus 2, Vero C1008; Vero E6, MOI 0.1, within 24 hours of infection; read-out: approximate IC50, cell-free viral RNA levels

| SMILES | binding affinity against any of the constructs (IDA) [1] | effect on virus titer (in words) (human coronavirus OC43) | cellular viability as measured by ATP content (VeroE6 cells) | reduced virus titer (human coronavirus OC43) | reduction of FLuc activity [2] | CC50 at 96 h [3] [µM] | cell viability (Vero E6 cells) | viral titer compared to DMSO (TCID50 assay) (SARS-CoV-2 [4]) | antiviral activity compared to parent scaffold DMA-01 (SARS-CoV-2 [4]) | affinity for SL1 (IDA) (SARS-CoV-2 SL1 RNA) | affinity for SL6 (IDA) (SARS-CoV-2 SL6 RNA) | affinity for SL4 (IDA) (SARS-CoV-2 SL4 RNA) | IC50 (SARS-CoV-2 [5]) [µM] |
| --- | --- | --- | --- | --- | --- | --- | --- | --- | --- | --- | --- | --- | --- |
| CN(C)c1nc(N)c(C(=O)N=C(N)N)nc1Cl [DMA-1, dimethylamiloride, reference compound] | did not show binding affinity | no activity | – | – | – | – | – | – | – | – | – | – | – |
| CN(C)c1nc(N)c(C(=O)NC(=N)N)nc1-c1ccccc1 [DMA-132] | did not show binding affinity | reduce virus titer in a dose-dependent manner | without measurable effect on cellular viability | ~1,000 fold | approximately 50% | > 100 | do not significantly reduce cell viability | dose-dependent reduction in viral titer | improved antiviral activity | – | – | – | – |
| CN(C)c1nc(N)c(C(=O)NC(=N)N)nc1C#Cc1ccccc1 [DMA-135] | – | reduce virus titer in a dose-dependent manner | without measurable effect on cellular viability | ~1,000 fold | approximately 50% | > 100 | do not significantly reduce cell viability | dose-dependent reduction in viral titer | improved antiviral activity | weak affinity | weak affinity | weak affinity | ~10 |
| CN(C)c1nc(N)c(C(=O)NC(=N)N)nc1-c1ccc(-c2ccccc2)cc1 [DMA-155] | – | reduce virus titer in a dose-dependent manner | – | ~1,000 fold | ~90% | ~90 | do not significantly reduce cell viability | – | improved antiviral activity | – | strong binder with highest affinity for SL6 | – | ~16 |
